Test results: patent US5380761A, “Transdermal compositions” (Chinoin Gyogyszer- ES Vegyeszeti Termekek Gyara RT., priority 1991, dated 1995)

Test system: MAO-A
Assay: MAO-A inhibition in domestic pig brain nucleus free homogenate (14C-5-HT substrate)
Format: in vivo
Details: p. os 10 mg, 96 h
Experimental: In further experiments we determined in domestic pigs The MAO activity in the brain and the platelet MAO-B activity.
The experiments were carried out on female (big white) domestic pigs, weighing 25-30 kg. The pigs were caged separately during the experiments, and the same food was supplied, which was used formerly.
Blood samples were taken for the determination of MAO-B activity at: 0, 3, 6, 24, 48, 72 and 96 h. At 96 h after blood sampling the pigs were killed and the MAO-B and MAO-A activity was determined in their dissected brain.
The times of blood sampling were at: 0, 3, 6, 24 and 48 h. The transdermal preparations were removed at 24 h. […] The pigs were killed at 48 h and MAO-A and MAO-B activity of the brain was determined.
Blood samples were taken at: 0, 3, 6, 24, 48 and 72 h. The patches were removed at 48 h and the whole procedure described at group 2 was accomplished.
MAO activity was measured radiometrically according to the methods of Wurtman and Axelrod (Biochem. Pharmacol. 12. 1414-19; 1963) with a slight modification (K. Magyar in: Monoamine Oxidases and their Selective Inhibition. Ed.: K. Magyar, Pergamon Press, Akademiai Kiado, Budapest 11-21; 1980).

Structure (SMILES): C#CCN(C)[C@H](C)Cc1ccccc1 [(-)-Deprenyl]
- inhibition of MAO-activity (%) as compared to the control, brain, 14C-5-HT: 20.14 ± 6.0%
